“And” between values parts separate entries of the source, which are not always exact repeats. Equal entries are not always repeated. Toxic doses and inconclusive results are not listed.

The test system of this test is BDF1 mice, P388 leukemia ip, median survival T/C. Put plainly: NCI In Vivo Anticancer Drug Screen. Data for tumor model P388 Leukemia (intraperitoneal) in B6D2F1 (BDF1) mice. The conditions noted are these: endpoint: median survival time, higher = longer survival. An outline of the steps:
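Compound-treated tumour-bearing mice were compared with vehicle-treated controls. Survival was recorded, and the value is the treated-group measurement divided by the control-group measurement (T/C).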

Setting [1] is: dose: 100.0 mg/kg/injection, schedule: Q01DX009 (ip), vehicle: Klucel (hydroxypropylcellulose) (HPC).
The mark [2] stands for this setting: dose: 100.0 mg/kg/injection, schedule: Q04DX003 (ip), vehicle: Klucel (hydroxypropylcellulose) (HPC).
[3] abbreviates: dose: 200.0 mg/kg/injection, schedule: Q01DX009 (ip), vehicle: Klucel (hydroxypropylcellulose) (HPC).
The mark [4] stands for this setting: dose: 200.0 mg/kg/injection, schedule: Q04DX003 (ip), vehicle: Klucel (hydroxypropylcellulose) (HPC).
Setting [5] is: dose: 400.0 mg/kg/injection, schedule: Q01DX009 (ip), vehicle: Klucel (hydroxypropylcellulose) (HPC).
Where [6] appears, read: dose: 400.0 mg/kg/injection, schedule: Q04DX003 (ip), vehicle: Klucel (hydroxypropylcellulose) (HPC).
Where [7] appears, read: dose: 12.5 mg/kg/injection, schedule: Q01DX009 (ip), vehicle: saline with Tween-80.
[8] abbreviates: dose: 25.0 mg/kg/injection, schedule: Q01DX009 (ip), vehicle: saline with Tween-80.
The mark [9] stands for this setting: dose: 50.0 mg/kg/injection, schedule: Q01DX009 (ip), vehicle: saline with Tween-80.

In the case of `O=C1C=CC(=O)N1c1ccc(Br)cc1Cl`, the T/C runs as follows: (dose: 1.0 mg/kg/injection, schedule: Q04DX003 (ip), vehicle: saline) 155 % of control; (dose: 2.0 mg/kg/injection, schedule: Q04DX003 (ip), vehicle: saline) 122 % of control.
For `CC1(CCBr)NC(=O)NC1=O` (stereo unspecified), the T/C under setting [1] is 110 % of control; the T/C under setting [2] is 100 % of control; the T/C under setting [3] was 105 % of control; the T/C under setting [4] is 115 % of control; the T/C under setting [5] is 105 % of control; the T/C under setting [6] was 100 % of control.
On to `CN(C)CC/C=C1\c2ccccc2Sc2ccc(Cl)cc21`, for which the T/C (dose: 3.75 mg/kg/injection, schedule: Q01DX001 (ip), vehicle: Klucel (hydroxypropylcellulose) (HPC)) is 112 % of control; the T/C (dose: 7.5 mg/kg/injection, schedule: Q01DX001 (ip), vehicle: Klucel (hydroxypropylcellulose) (HPC)) is 110 % of control; the T/C (dose: 15.0 mg/kg/injection, schedule: Q01DX001 (ip), vehicle: Klucel (hydroxypropylcellulose) (HPC)) is 112 % of control; the T/C (dose: 30.0 mg/kg/injection, schedule: Q01DX001 (ip), vehicle: Klucel (hydroxypropylcellulose) (HPC)) was 103 % of control; the T/C (dose: 60.0 mg/kg/injection, schedule: Q01DX001 (ip), vehicle: Klucel (hydroxypropylcellulose) (HPC)) is 114 % of control; the T/C (dose: 120.0 mg/kg/injection, schedule: Q01DX001 (ip), vehicle: Klucel (hydroxypropylcellulose) (HPC)) was 118 % of control.
Take `CN(CCOS(C)(=O)=O)CCOS(C)(=O)=O`: the T/C was 172 % of control (dose: 0.01 mg/kg/injection, schedule: Q01DX009 (ip), vehicle: saline); 213 % of control (dose: 0.02 mg/kg/injection, schedule: Q01DX009 (ip), vehicle: saline); 122 % of control (dose: 0.07 mg/kg/injection, schedule: Q04DX003 (ip), vehicle: saline); 154 % of control (dose: 0.11 mg/kg/injection, schedule: Q04DX003 (ip), vehicle: saline); 104 % of control and 218 % of control (dose: 0.36 mg/kg/injection, schedule: Q01DX009 (ip), vehicle: saline); 231 % of control and 260 % of control and 90 % of control (dose: 0.56 mg/kg/injection, schedule: Q01DX009 (ip), vehicle: saline). Also, the T/C by setting is: (dose: 0.75 mg/kg/injection, schedule: Q04DX003 (ip), vehicle: saline) 213 % of control; (dose: 0.84 mg/kg/injection, schedule: Q01DX009 (ip), vehicle: saline) 231 % of control; (dose: 0.99 mg/kg/injection, schedule: Q04DX003 (ip), vehicle: saline) 225 % of control; (dose: 1.5 mg/kg/injection, schedule: Q04DX003 (ip), vehicle: saline) 240 % of control and 250 % of control; (dose: 2.25 mg/kg/injection, schedule: Q04DX003 (ip), vehicle: saline) 150 % of control; (dose: 2.3 micrograms/kg/injection, schedule: Q01DX009 (ip), vehicle: saline) 87 % of control. Also, the T/C was 160 % of control (dose: 19.0 micrograms/kg/injection, schedule: Q01DX009 (ip), vehicle: saline); 158 % of control (dose: 44.0 micrograms/kg/injection, schedule: Q01DX009 (ip), vehicle: saline); 220 % of control (dose: 66.0 micrograms/kg/injection, schedule: Q01DX009 (ip), vehicle: saline).
Turning to `CNC(=S)N/N=C(\C)c1ccccn1`, the T/C is, setting by setting: (dose: 6.25 mg/kg/injection, schedule: Q01DX009 (ip), vehicle: saline with Tween-80) 102 % of control; under setting [7], 121 % of control; under setting [8], 102 % of control.
Consider `O=S1(=O)CCNNCC1`, for which the T/C is 110 % of control (dose: 25.0 mg/kg/injection, schedule: Q01DX001 (ip), vehicle: saline); 105 % of control (dose: 50.0 mg/kg/injection, schedule: Q01DX001 (ip), vehicle: saline); 120 % of control (dose: 100.0 mg/kg/injection, schedule: Q01DX001 (ip), vehicle: saline); 110 % of control (dose: 200.0 mg/kg/injection, schedule: Q01DX001 (ip), vehicle: saline).
For the compound `c1ccc(/C(=N\Nc2nc3ccccc3s2)c2ccncc2)cc1`, the T/C runs as follows: under setting [1], 104 % of control; under setting [2], 100 % of control; under setting [3], 95 % of control; under setting [4], 105 % of control; under setting [5], 100 % of control; under setting [6], 105 % of control.
For `COc1cccc2c1C(=O)CC2`, the T/C was 100 % of control (dose: 25.0 mg/kg/injection, schedule: Q01DX009 (ip), vehicle: Klucel (hydroxypropylcellulose) (HPC)); 100 % of control (dose: 50.0 mg/kg/injection, schedule: Q01DX009 (ip), vehicle: Klucel (hydroxypropylcellulose) (HPC)); 100 % of control (dose: 75.0 mg/kg/injection, schedule: Q04DX003 (ip), vehicle: Klucel (hydroxypropylcellulose) (HPC)); 96 % of control under setting [1]; 95 % of control (dose: 150.0 mg/kg/injection, schedule: Q04DX003 (ip), vehicle: Klucel (hydroxypropylcellulose) (HPC)).
For `CCCCCCCCCC[N+](C)(C)CCC[N+](C)(C)CCCCCCCCCC`, the T/C runs as follows: (dose: 0.78 mg/kg/injection, schedule: Q01DX009 (ip), vehicle: saline) 87 % of control; (dose: 1.56 mg/kg/injection, schedule: Q01DX009 (ip), vehicle: saline) 98 % of control; (dose: 3.12 mg/kg/injection, schedule: Q01DX009 (ip), vehicle: saline) 100 % of control; (dose: 3.13 mg/kg/injection, schedule: Q01DX009 (ip), vehicle: saline) 120 % of control; (dose: 6.25 mg/kg/injection, schedule: Q01DX009 (ip), vehicle: saline) 116 % of control and 123 % of control.
As for `NNc1nncc2ccccc12`, the T/C reads like this: (dose: 6.25 mg/kg/injection, schedule: Q04DX003 (ip), vehicle: saline) 90 % of control; (dose: 12.5 mg/kg/injection, schedule: Q04DX003 (ip), vehicle: saline) 90 % of control; (dose: 25.0 mg/kg/injection, schedule: Q01DX009 (ip), vehicle: saline) 109 % of control; (dose: 25.0 mg/kg/injection, schedule: Q04DX003 (ip), vehicle: saline) 113 % of control; (dose: 50.0 mg/kg/injection, schedule: Q01DX009 (ip), vehicle: saline) 90 % of control; (dose: 100.0 mg/kg/injection, schedule: Q04DX003 (ip), vehicle: saline) 100 % of control.
Take `COc1cc(C=Nc2cc(Cl)ccc2-n2ccnc2C)ccc1N(CCCl)CCCl`: the T/C was 170 % of control (dose: 21.0 mg/kg/injection, schedule: Q04DX003 (ip), vehicle: saline with Tween-80); 235 % of control (dose: 33.0 mg/kg/injection, schedule: Q04DX003 (ip), vehicle: saline with Tween-80); 170 % of control (dose: 50.0 mg/kg/injection, schedule: Q04DX003 (ip), vehicle: saline with Tween-80); 178 % of control (dose: 75.0 mg/kg/injection, schedule: Q04DX003 (ip), vehicle: saline with Tween-80).
On to `COc1cccc(CCCC(=O)C(C)(C)S(C)=O)c1` (stereo unspecified), for which the T/C reads like this: under setting [9], 103 % of control; (dose: 100.0 mg/kg/injection, schedule: Q01DX009 (ip), vehicle: saline with Tween-80) 95 % of control; (dose: 200.0 mg/kg/injection, schedule: Q01DX009 (ip), vehicle: saline with Tween-80) 103 % of control.
On to `CC(=O)Nc1c(C)cc(C)cc1C`, for which the T/C is, setting by setting: under setting [2], 104 % of control; under setting [4], 100 % of control; under setting [6], 118 % of control.
In the case of `O=C1NC2C(NC(=O)N2Cl)N1Cl` (stereo unspecified), the T/C was 103 % of control under setting [7], 100 % of control under setting [8] and 103 % of control under setting [9].
Turning to `Oc1ccc2ccccc2c1Cc1c(O)ccc2ccccc12`, the T/C reads like this: (dose: 50.0 mg/kg/injection, schedule: Q04DX003 (ip), vehicle: other) 95 % of control; (dose: 100.0 mg/kg/injection, schedule: Q04DX003 (ip), vehicle: other) 95 % of control; (dose: 200.0 mg/kg/injection, schedule: Q04DX003 (ip), vehicle: other) 104 % of control.
Consider `COc1cccc2c1C(=O)c1c(O)c3c(c(O)c1C2=O)C[C@@](O)(C(=O)COC(=O)c1cccnc1)C[C@@H]3OC1CC(N)C(O)C(C)O1` (stereo partly specified), for which the T/C was 195 % of control (dose: 1.32 mg/kg/injection, schedule: Q01DX009 (ip), vehicle: saline) and 237 % of control (dose: 2.0 mg/kg/injection, schedule: Q01DX009 (ip), vehicle: saline).

The values are drawn from PubChem BioAssay AID328 (DTP/NCI, 2004).
